Measured values taken from PMC10377513, “Goldilocks Dilemma: LPS Works Both as the Initial Target and a Barrier for the Antimicrobial Action of Cationic AMPs on E. coli” (Biomolecules, 2023).
Values after ≈ are worked out from the molar mass of the structure shown. Residues, ends and D or L forms follow the SMILES beside them.

Key:
[1] = SPR partitioning into immobilized liposomes; assay type: binding, E. coli; conditions: DMPC liposomes with 10% LPS versus DMPC and DMPC:PG
Protocol: The large unilamellar liposomes of DMPC and DMPC:PG (95:5) were prepared for the SPR experiment using standard methods. In brief, lipid mixtures were weighted from dry powder (Avanti, USA) and dissolved in 3:1 dichloromethane:methanol mixtures. The organic mixture was dried in a vacuum rotavapor to form a lipid film which was hydrated to 20 mM total concentration of lipids (for DMPC and DMPC:PG mixture) by adding 10 mM HEPES buffer pH 7.4 with 150 mM NaCl. For DMPC:LPS mixtures, dried LPS was dissolved in water and mixed with DMPC dissolved in dichloromethane. Isopropanol was added to the mixture until only one phase—dichloromethane:isopropanol:water was formed. Dry film was prepared and then hydrated using the same method as above to a concentration of 18 mM of DMPC and 10% (w/w) LPS in HEPES buffer. […]
The SPR experiments were performed at room temperature using the L1 chip and T200 Biacore instrument (GE Healthcare, Chicago, IL, USA). […] KD was obtained Using Equation (1) from a standard steady-state fit:(1) RU=RUMAX/1+KD/[P]+off, where RU is measured SPR response; RUMAX is RU response during saturation; [P] is peptide concentration; and off is offset of response. […]
SPR is emerging as the method of choice for measuring the partitioning of small compounds into lipid bilayers. […] From the estimated KD and the measured koff values, the association rate kon can be calculated (Equation (5)). […]

E. coli ATCC 25922 = conditions: CLSI guidelines, MHBII; cited from earlier work
Protocol: Table 1 MIC and ζ potentials for the tested peptides against P. aeruginosa, S. aureus, and the three E. coli strains: ATCC 25922, LPS deficient—NR 698, and colistin-resistant CCUG 70662, which was tested after cultivation with (+) and without (−) 4 µg/mL of colistin, which caused a decrease of negative charge of the cell wall. MIC values for P. aeruginosa, S. aureus, and E. coli ATCC 25922 are rep | column: MIC (µg/mL) / E. coli ATCC 25922

E. coli CCUG 70662 = tested on: E. coli CCUG 70662
Protocol: (§1) The bacterial strains tested were E. coli ATCC 25922, E. coli […], and E. coli NR-698. The MIC assays followed the CLSI guidelines. Overnight cultures and MIC assays were performed in MHBII (212322, Becton, Dickson and Company, Sparks, MD, USA). In addition, E. coli […] was tested after cultivation with 4 µg/mL of colistin to induce alternation in surface charge.
(§2) The antimicrobial activity of the five cyclic cationic AMPs was determined against S. aureus, P. aeruginosa, and three strains of E. coli: ATCC 25922, LPS colistin-resistant strain CCUG 70662, and LPS deficient strain NR 698 (Table 1). CCUG 70662 was cultivated in two conditions, both in the absence (−) and in the presence (+) of colistin (4 µg/mL). Resistance development can be monitored by measuring changes in the ζ-potential, reflecting the overall charge of the bacteria. […] In the NR 698 strain, translocation of LPS from the periplasmic space to the outer leaflet is hindered.

E. coli NR 698 = conditions: LPS deficient strain; CLSI guidelines, MHBII
Protocol: as §1, §2

[2] = SPR, L1 chip, Biacore T200, room temperature, DMPC liposomes, 10 mM HEPES pH 7.4, 150 mM NaCl, steady-state fit; cited from earlier work
From the text: Introducing 5% of a negatively charged component (DMPG) to the liposomes doubled the KP of all peptides except c(WKWKWK), where the increase was less substantial.

P. aeruginosa ATCC 27853 = conditions: CLSI guidelines, MHBII; cited from earlier work
Protocol: Table 1 MIC and ζ potentials for the tested peptides against P. aeruginosa, S. aureus, and the three E. coli strains: ATCC 25922, LPS deficient—NR 698, and colistin-resistant CCUG 70662, which was tested after cultivation with (+) and without (−) 4 µg/mL of colistin, which caused a decrease of negative charge of the cell wall. MIC values for P. aeruginosa, S. aureus, and E. coli ATCC 25922 are rep | column: MIC (µg/mL) / P. aeruginosa ATCC 27853

S. aureus ATCC 9144 = conditions: CLSI guidelines, MHBII; cited from earlier work
Protocol: Table 1 MIC and ζ potentials for the tested peptides against P. aeruginosa, S. aureus, and the three E. coli strains: ATCC 25922, LPS deficient—NR 698, and colistin-resistant CCUG 70662, which was tested after cultivation with (+) and without (−) 4 µg/mL of colistin, which caused a decrease of negative charge of the cell wall. MIC values for P. aeruginosa, S. aureus, and E. coli ATCC 25922 are rep | column: MIC (µg/mL) / S. aureus ATCC 9144

[3] = tested on: E. coli ATCC 25922 live cells; assay: Live cell NMR (1H signal attenuation on cell titration); assay type: binding; conditions: E. coli ATCC 25922 cells titrated into 1 mg/mL peptide, Tris buffer pH 7.4, 298 K; KD in estimated lipid concentration, Shortridge fit; read-out: KD from live cell NMR
Protocol: (§3) NMR spectra were acquired on a Bruker Avance III HD spectrometer operating at 600 MHz for ^1H, equipped with an inverse TCl cryo probe. All NMR spectra were acquired at 298 K using 5 mm tubes using standard pulse programs.
(§4) E. coli strains ATCC 25922, CCUG 70662, and NR 698 were grown until OD600 ≈ 0.6–0.8 in standard Lysogeny Broth at 37 °C from overnight colonies on agar plates. This allowed bacterial cultures to reach an exponential state of growth. CCUG 70662 was cultivated with and without 4 µg/mL of colistin in both agar and broth to allow for modification of the lipid A part of LPS [33]. After that, cells were carefully centrifuged by 6000× g for 10 min, the supernatant was discarded, and the cell pellet was resuspended in 10 mM Tris buffer with 100 mM NaCl and pH 7.4. The process was repeated two more times to wash out broth components and leftover colistin. […] The part of samples was diluted to OD = 1 in Tris buffer, and zeta potential was measured on Malvern Zetasizer Nano (Malvern Ins., Malvern, UK). […]
(§5) For the live cell NMR, the same E. coli strains as for the MIC testing (see above) were used. […] To measure the initial AMP:bacterial cell binding, we titrated an increasing number of cells into a known and fixed concentration of AMP and monitored the signal attenuation of the peptide (Figure 4A,B). […]

[4] = tested on: E. coli NR 698 live cells; assay: as above; assay type: binding; conditions: E. coli NR 698 cells titrated into 1 mg/mL peptide, Tris buffer pH 7.4, 298 K; KD in estimated lipid concentration, Shortridge fit; read-out: KD from live cell NMR
Protocol: as §3, §4, §5

[5] = tested on: E. coli ATCC 25922 lysate; assay: NMR line shape analysis with sonicated cell lysate; assay type: binding; conditions: ATCC 25922 lysate versus live cells
Protocol: as §3, §4, §5

Row | Structure (SMILES) | Increase in KP with DMPC:LPS compared to the DMPC and DMPC:PG constructs [1] | MIC E. coli ATCC 25922 (E. coli ATCC 25922) [µg/mL] | MIC E. coli CCUG 70662+ (E. coli CCUG 70662) [µg/mL] | MIC E. coli CCUG 70662− (E. coli CCUG 70662) [µg/mL] | MIC E. coli NR 698 (E. coli NR 698) [µg/mL] | Partitioning constant KP [2] | MIC P. aeruginosa ATCC 27853 (P. aeruginosa ATCC 27853) [µg/mL] | MIC S. aureus ATCC 9144 (S. aureus ATCC 9144) [µg/mL] | Kd [3] [µM] | Kd [4] [µM] | Increase in KD after sonication (lysate versus live cell ATCC 25922) [5]
1 | CC(C)C[C@@H]1NC(=O)[C@@H](CCCNC(=N)N)NC(=O)[C@H](CCCCN)NC(=O)[C@H](CC(N)=O)NC(=O)[C@@H](Cc2c[nH]c3ccccc23)NC(=O)[C@H](Cc2c[nH]c3ccccc23)NC1=O [c(LWwNKr)] (HELM PEPTIDE1{L.W.[dW].N.K.[dR]}$PEPTIDE1,PEPTIDE1,1:R1-6:R2$$$V2.0) | four-fold | >250 | >250 | >250 | 32 (≈ 36.2 µM) | 278 | >250 | >250 |  |  | 
2 | NCCCC[C@@H]1NC(=O)[C@H](Cc2c[nH]c3ccccc23)NC(=O)[C@H](CCCCN)NC(=O)[C@H](Cc2c[nH]c3ccccc23)NC(=O)[C@H](CCCCN)NC(=O)[C@H](Cc2c[nH]c3ccccc23)NC1=O [c(WKWKWK)] (HELM PEPTIDE1{W.K.W.K.W.K}$PEPTIDE1,PEPTIDE1,1:R1-6:R2$$$V2.0) |  | 64 (≈ 67.9 µM) | 64 (≈ 67.9 µM) | 64 (≈ 67.9 µM) | 4 (≈ 4.24 µM) |  | >250 | 128 (≈ 136 µM) |  |  | 
3 | N=C(N)NCCC[C@@H]1NC(=O)[C@H](Cc2c[nH]c3ccccc23)NC(=O)[C@H](CCCNC(=N)N)NC(=O)[C@H](Cc2c[nH]c3ccccc23)NC(=O)[C@H](CCCNC(=N)N)NC(=O)[C@H](Cc2c[nH]c3ccccc23)NC1=O [c(WRWRWR)] (HELM PEPTIDE1{W.R.W.R.W.R}$PEPTIDE1,PEPTIDE1,1:R1-6:R2$$$V2.0) |  | 32 (≈ 31.2 µM) | 32 (≈ 31.2 µM) | 16 (≈ 15.6 µM) | 2 (≈ 1.95 µM) |  | 64 (≈ 62.3 µM) | 32 (≈ 31.2 µM) | 50 to 200 | > 500 | two-fold
4 | NCCCC[C@@H]1NC(=O)[C@H](CCCCN)NC(=O)[C@H](Cc2c[nH]c3ccccc23)NC(=O)[C@H](Cc2c[nH]c3ccccc23)NC(=O)[C@H](Cc2c[nH]c3ccccc23)NC(=O)[C@H](CCCCN)NC1=O [c(WWWKKK)] (HELM PEPTIDE1{W.W.W.K.K.K}$PEPTIDE1,PEPTIDE1,1:R1-6:R2$$$V2.0) |  | 8 (≈ 8.48 µM) | 4 (≈ 4.24 µM) | 4 (≈ 4.24 µM) | 2 (≈ 2.12 µM) |  | 32 (≈ 33.9 µM) | 32 (≈ 33.9 µM) |  |  | 
5 | N=C(N)NCCC[C@@H]1NC(=O)[C@H](CCCNC(=N)N)NC(=O)[C@H](Cc2c[nH]c3ccccc23)NC(=O)[C@H](Cc2c[nH]c3ccccc23)NC(=O)[C@H](Cc2c[nH]c3ccccc23)NC(=O)[C@H](CCCNC(=N)N)NC1=O [c(WWWRRR)] (HELM PEPTIDE1{W.W.W.R.R.R}$PEPTIDE1,PEPTIDE1,1:R1-6:R2$$$V2.0) |  | 8 (≈ 7.79 µM) | 8 (≈ 7.79 µM) | 8 (≈ 7.79 µM) | 4 (≈ 3.89 µM) | 6649 | 16 (≈ 15.6 µM) | 4 (≈ 3.89 µM) |  |  | 
